Source: ChEMBL document CHEMBL1212822, “Synthesis, fluorine-18 radiolabeling, and biological evaluation of N-((E)-4-fluorobut-2-en-1-yl)-2beta-carbomethoxy-3beta-(4'-halophenyl)nortropanes: candidate radioligands for in vivo imaging of the brain dopamine transporter with positron emission tomography” (J Med Chem, 2010)

How the values were obtained:
[1] = target: Sodium-dependent dopamine transporter (Homo sapiens, UniProt Q01959)
[2] = target: Sodium-dependent serotonin transporter (Homo sapiens, UniProt P31645)
Sequence of Sodium-dependent serotonin transporter (P31645 whole entry): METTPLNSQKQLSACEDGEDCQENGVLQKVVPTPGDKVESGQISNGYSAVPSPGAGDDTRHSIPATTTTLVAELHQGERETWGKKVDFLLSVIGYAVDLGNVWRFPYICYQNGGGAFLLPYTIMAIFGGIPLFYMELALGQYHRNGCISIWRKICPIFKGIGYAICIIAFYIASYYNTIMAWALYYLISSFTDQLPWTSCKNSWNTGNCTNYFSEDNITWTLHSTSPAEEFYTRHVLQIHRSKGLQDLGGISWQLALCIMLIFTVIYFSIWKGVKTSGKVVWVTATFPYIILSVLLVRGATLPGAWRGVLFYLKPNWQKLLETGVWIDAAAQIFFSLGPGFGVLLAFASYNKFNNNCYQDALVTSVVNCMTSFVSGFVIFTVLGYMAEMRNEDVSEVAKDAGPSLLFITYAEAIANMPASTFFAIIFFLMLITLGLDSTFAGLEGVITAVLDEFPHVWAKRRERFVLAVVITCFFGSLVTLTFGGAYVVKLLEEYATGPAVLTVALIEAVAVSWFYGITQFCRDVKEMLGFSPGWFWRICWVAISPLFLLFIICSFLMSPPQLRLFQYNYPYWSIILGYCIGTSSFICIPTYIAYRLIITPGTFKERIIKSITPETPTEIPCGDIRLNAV

[3] = target: Sodium-dependent noradrenaline transporter (Homo sapiens, UniProt P23975)
Sequence of Sodium-dependent noradrenaline transporter (P23975 whole entry): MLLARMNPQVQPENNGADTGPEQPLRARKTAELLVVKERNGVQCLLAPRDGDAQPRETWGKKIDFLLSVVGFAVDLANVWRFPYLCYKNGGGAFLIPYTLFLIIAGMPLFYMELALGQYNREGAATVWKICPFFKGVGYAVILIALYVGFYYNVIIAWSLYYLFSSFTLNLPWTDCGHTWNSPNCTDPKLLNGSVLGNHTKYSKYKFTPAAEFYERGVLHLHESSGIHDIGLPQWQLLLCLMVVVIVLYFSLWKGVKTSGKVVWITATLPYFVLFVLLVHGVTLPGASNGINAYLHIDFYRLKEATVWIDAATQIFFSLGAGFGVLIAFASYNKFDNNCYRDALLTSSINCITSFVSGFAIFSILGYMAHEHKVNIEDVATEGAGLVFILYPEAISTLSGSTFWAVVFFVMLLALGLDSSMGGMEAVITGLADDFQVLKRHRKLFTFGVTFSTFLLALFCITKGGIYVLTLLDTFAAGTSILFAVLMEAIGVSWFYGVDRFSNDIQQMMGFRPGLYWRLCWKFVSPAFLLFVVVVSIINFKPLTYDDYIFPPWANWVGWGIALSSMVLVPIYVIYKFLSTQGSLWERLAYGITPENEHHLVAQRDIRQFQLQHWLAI
Description: Displacement of [3H]nisoxetine from human NET

Sequence of Sodium-dependent dopamine transporter (Q01959 whole entry): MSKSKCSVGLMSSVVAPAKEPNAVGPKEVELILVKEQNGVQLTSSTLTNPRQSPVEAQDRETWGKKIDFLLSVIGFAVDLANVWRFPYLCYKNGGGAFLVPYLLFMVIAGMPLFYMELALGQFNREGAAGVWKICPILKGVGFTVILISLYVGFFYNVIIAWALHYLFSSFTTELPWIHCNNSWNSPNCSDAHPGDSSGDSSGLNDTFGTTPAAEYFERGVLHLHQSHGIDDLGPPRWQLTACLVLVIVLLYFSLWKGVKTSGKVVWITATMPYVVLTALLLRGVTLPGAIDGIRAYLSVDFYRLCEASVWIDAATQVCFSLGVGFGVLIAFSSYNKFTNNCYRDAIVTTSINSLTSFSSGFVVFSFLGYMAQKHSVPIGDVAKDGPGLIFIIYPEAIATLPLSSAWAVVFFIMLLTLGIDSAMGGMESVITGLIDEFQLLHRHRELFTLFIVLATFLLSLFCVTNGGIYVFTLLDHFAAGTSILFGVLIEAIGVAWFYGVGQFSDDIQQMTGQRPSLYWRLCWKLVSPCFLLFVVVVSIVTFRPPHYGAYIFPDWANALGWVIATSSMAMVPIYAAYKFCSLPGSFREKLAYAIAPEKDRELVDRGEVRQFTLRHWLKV

Row | Compound | Ki [1] | Ki [2] | Ki [3]
1 | COC(=O)[C@@H]1C2CCC(C[C@@H]1c1ccc(F)cc1)N2C/C=C/CF (stereo partly drawn) | 9.5 nM | – | –
2 | COC(=O)[C@@H]1C2CCC(C[C@@H]1c1ccc(Br)cc1)N2C/C=C/CF (stereo partly drawn) | – | 8.5 nM | 87 nM
3 | COC(=O)[C@@H]1C2CCC(C[C@@H]1c1ccc(I)cc1)N2C/C=C/CF (stereo partly drawn) | 0.5 nM | 2.2 nM | –
4 | COC(=O)[C@@H]1C2CCC(C[C@@H]1c1ccc(C)cc1)N2C/C=C/CF (stereo partly drawn) | 2.7 nM | 147 nM | 265 nM
